According to ChEMBL document CHEMBL4346685, “Naphthyl quinoxaline thymidine conjugate is a potent anticancer agent post UVA activation and elicits marked inhibition of tumor growth through vaccination” (Eur J Med Chem, 2019):
The source made the active and inactive calls. The rule behind the calls is not given here.

Legend:
H22 [1] = assay: (§1) Induction of immunogenic cell death in mouse H22 cells assessed as increase in intracellular calreticulin level at 60 to 250 nM preincubated for 5 hrs followed by compound washout and subsequent 2 mW/cm2 UVA irradiation for 20 mins measured 2 hrs post irradiation by flow cytometric analysis; format: functional, cell-based
H22 [2] = assay: Dark toxicity against mouse H22 cells up to 500 nM preincubated for 5 hrs followed by compound washout and measured after 48 hrs by CCK8 assay; format: cell-based; conditions: h22, 48 h
H22 [3] = assay: Induction of immunogenic cell death in mouse H22 cells assessed as […] in extracellular ATP level at 250 nM incubated for 5 hrs followed by compound washout and subsequent 2 mW/cm2 UVA irradiation measured 5 hrs post irradiation by chemiluminescence-based assay; format: functional
MCF7 [4] = assay: Induction of reactive oxygen species generation in human MCF7 cells up to 200 nM preincubated for 5 hrs followed by compound washout and subsequent 3 mW/cm2 UVA irradiation measured 10 mins post irradiation by DCFH-DA probe based fluorescence microscopic analysis; format: functional, cell-based
A-375 [5] = assay: Antiproliferative activity against human A375 cells assessed as reduction in cell viability preincubated for 5 hrs followed by compound washout and subsequent 3 mW/cm2 UVA irradiation measured 48 hrs post irradiation by CCK8 assay; format: functional, cell-based; conditions: A-375, light or radiation study
[6] = Toxicity in immunocompetent BALB/c mouse allografted with mouse H22 cells assessed as change in body weight at 250 nM incubated with cells for 5 hrs followed by compound washout before 2 mW/cm2 UVA irradiation for 20 mins and followed by vaccination and subsequent H22 cells addition 10 days post vaccination and measured over 30 days; conditions: 0.25 µM
H22 [7] = assay: Antitumor activity against mouse H22 cells allografted in immunocompetent Balb/c mouse assessed as inhibition of tumour formation at 60 nM incubated with cells for 5 hrs prior to 20 mins 2 mW/cm2 UVA irradiation post compound washout followed by vaccination and measured over 20 days; format: functional, cell-based
H22 [8] = assay: Induction of immunogenic cell death in mouse H22 cells assessed as extracellular HMGB1 level at 120 to 250 nM preincubated for 5 hrs followed by compound washout and subsequent 2 mW/cm2 UVA irradiation measured 2 hrs post irradiation by ELISA; format: functional
Bel-7402 [9] = assay: Antiproliferative activity against human Bel7402 cells assessed as reduction in cell viability preincubated for 5 hrs followed by compound washout and subsequent 3 mW/cm2 UVA irradiation for 20 mins measured 48 hrs post irradiation by CCK8 assay; format: functional, cell-based; conditions: Bel-7402, light or radiation study
H22 [10] = assay: Antitumor activity against mouse H22 cells allografted in immunocompetent Balb/c mouse assessed as decrease in lump formation at vaccination site at 250 nM incubated with cells for 5 hrs prior to 20 mins 2 mW/cm2 UVA irradiation post compound washout followed by vaccination and measured over 30 days; format: functional, cell-based
A-375 [11] = assay: Dark toxicity against human A375 cells up to 500 nM preincubated for 5 hrs followed by compound washout and measured after 48 hrs by CCK8 assay; format: cell-based; conditions: a-375, 48 h
Bel-7402 [12] = assay: Dark toxicity against human Bel7402 cells up to 500 nM incubated for 5 hrs followed by compound washout and measured after 48 hrs by CCK8 assay; format: cell-based; conditions: bel-7402, 5 h
H22 [13] = assay: Dark toxicity in mouse H22 cells assessed as increase in intracellular calreticulin level at 60 to 250 nM measured after 5 hrs by flow cytometric analysis; format: cell-based; conditions: h22, 5 h, 0.25 µM
H22 [14] = assay: Induction of immunogenic cell death in mouse H22 cells assessed as extracellular ATP level at 250 nM preincubated for 5 hrs followed by compound washout and subsequent 2 mW/cm2 UVA irradiation for 20 mins measured 2 hrs post irradiation by chemiluminescence-based assay; format: functional
H22 [15] = assay: Antitumor activity against mouse H22 cells allografted in immunocompetent Balb/c mouse assessed as inhibition of tumour formation at 60 nM incubated with cells for 5 hrs prior to 20 mins 2 mW/cm2 UVA irradiation post compound washout followed by vaccination and measured over 10 days; format: functional, cell-based
H22 [16] = assay: (§2) Antitumor activity against mouse H22 cells allografted in immunocompetent Balb/c mouse assessed as decrease in tumour formation at challenge site at 250 nM incubated with cells for 5 hrs followed by compound washout before 2 mW/cm2 UVA irradiation for 20 mins and followed by vaccination and subsequent H22 cells addition 10 days post vaccination and measured on day 25; format: functional, cell-based
H22 [17] = assay: as §2, with “after 2 weeks” for “on day 25”; format: functional, cell-based
MCF7 [18] = assay: Dark toxicity against human MCF7 cells up to 500 nM preincubated for 5 hrs followed by compound washout and measured after 48 hrs by CCK8 assay; format: cell-based; conditions: mcf7, 48 h
H22 [19] = assay: as §2, with “after 2 months” for “on day 25”; format: functional, cell-based
H22 [20] = assay: Antiproliferative activity against mouse H22 cells assessed as reduction in cell viability preincubated for 5 hrs followed by compound washout and subsequent 2 mW/cm2 UVA irradiation measured 48 hrs post irradiation by CCK8 assay; format: functional, cell-based; conditions: H22, light or radiation study
H22 [21] = assay: Dark toxicity in mouse H22 cells assessed as increase in extracellular HMGB1 level at 120 to 250 nM incubated for 5 hrs by ELISA; format: cell-based; conditions: h22, 5 h, 0.25 µM
H22 [22] = assay: as §1, with “irradiation” for “irradiation for 20 mins”, “Hoechst staining based fluorescence microscopic” for “flow cytometric”; format: functional
H22 [23] = assay: Antitumor activity against mouse H22 cells allografted in immunocompetent Balb/c mouse assessed as inhibition of tumour formation at 250 nM incubated with cells for 5 hrs prior to 20 mins 2 mW/cm2 UVA irradiation post compound washout followed by vaccination and measured within 5 days; format: functional, cell-based
MCF7 [24] = assay: Antiproliferative activity against human MCF7 cells assessed as reduction in cell viability preincubated for 5 hrs followed by compound washout and subsequent 3 mW/cm2 UVA irradiation measured 48 hrs post irradiation by CCK8 assay; format: functional, cell-based; conditions: MCF7, light or radiation study
H22 [25] = assay: Induction of immunogenic cell death in mouse H22 cells assessed as increase in extracellular ATP level at 2 uM measured after 5 hrs by chemiluminescence-based assay; format: functional
H22 [26] = assay: Antitumor activity against mouse H22 cells allografted in immunocompetent Balb/c mouse assessed as inhibition of tumour formation at 2 uM incubated with cells for 5 hrs prior to 20 mins 2 mW/cm2 UVA irradiation post compound washout followed by vaccination and measured within 5 days; format: functional, cell-based
A-375 [27] = assay: Cytotoxicity against human A375 cells assessed as reduction in cell viability preincubated for 5 hrs followed by compound washout and measured after 48 hrs by CCK8 assay; format: functional, cell-based
H22 [28] = assay: Antitumor activity against mouse H22 cells allografted in immunocompetent Balb/c mouse assessed as decrease in lump formation in vaccination site at 2 uM incubated with cells for 5 hrs prior to 20 mins 2 mW/cm2 UVA irradiation post compound washout followed by vaccination and measured over 30 days; format: functional, cell-based
MCF7 [29] = assay: Cytotoxicity against human MCF7 cells assessed as reduction in cell viability preincubated for 5 hrs followed by compound washout and measured after 48 hrs by CCK8 assay; format: functional, cell-based
H22 [30] = assay: Induction of immunogenic cell death in mouse H22 cells assessed as extracellular ATP level at 2 uM measured after 24 hrs by chemiluminescence-based assay; format: functional
[31] = Dark toxicity against mouse H22 cells assessed as reduction in cell viability preincubated for 5 hrs followed by compound washout and measured after 48 hrs by CCK8 assay; format: cell-based
Bel-7402 [32] = assay: Cytotoxicity against human Bel7402 cells assessed as reduction in cell viability preincubated for 5 hrs followed by compound washout and measured after 48 hrs by CCK8 assay; format: functional, cell-based
H22 [33] = assay: Antitumor activity against mouse H22 cells allografted in immunocompetent Balb/c mouse assessed as decrease in lump formation at challenge site at 2 uM incubated with cells for 5 hrs followed by compound washout prior to vaccination and subsequent H22 cells addition 10 days post vaccination and measured over 30 days; format: functional, cell-based
H22 [34] = assay: Induction of immunogenic cell death in mouse H22 cells assessed as increase in extracellular HMGB1 level at 2 uM incubated for 5 hrs by ELISA; format: functional, cell-based
H22 [35] = assay: Induction of immunogenic cell death in mouse H22 cells assessed as increase in calreticulin level in cell surface at 2 uM incubated for 5 hrs by Hoechst staining based fluorescence microscopic analysis; format: functional
H22 [36] = assay: Induction of immunogenic cell death in mouse H22 cells assessed as increase in intracellular calreticulin level at 2 uM measured after 5 hrs by flow cytometric analysis; format: functional, cell-based

In the case of `Cc1cn([C@H]2C[C@H](n3cc(CNC(=O)CCCCCOc4ccc5c(c4)-c4nc6cc7ccccc7cc6nc4[C@H]4C(C)(C)CCC[C@]54C)nn3)[C@@H](CO)O2)c(=O)[nH]c1=O`, the Activity (H22 [1]) is reported as “Active”, the Activity (H22 [2]) is reported as “Non-Toxic” and the Activity (H22 [3]) is reported as “Active”. For the same compound, the Activity (MCF7 [4]) was “Active”, the IC50 (A-375 [5]) was 0.0253 µM and the Activity [6] was “Non-Toxic”. The inhibition (H22 [7]) was “inactive”, the Activity (H22 [8]) was 3 ng/mL and the IC50 (Bel-7402 [9]) was 0.0266 µM. The Activity (H22 [10]) was “Active”, the Activity (A-375 [11]) was “Non-Toxic” and the Activity (Bel-7402 [12]) was “Non-Toxic”. For the same compound, the Activity (H22 [13]) was “Non-Toxic”, the Activity (H22 [14]) was 335 nM and the inhibition (H22 [15]) was “inactive”. For the same compound, the inhibition (H22 [16]) was “Active”, the inhibition (H22 [17]) was “Active” and the Activity (MCF7 [18]) was “Non-Toxic”. The inhibition (H22 [19]) was “Active”, the IC50 (H22 [20]) was 0.0288 µM and the Activity (H22 [21]) was “Non-Toxic”. For the same compound, the Activity (H22 [22]) was “Active”, the inhibition (H22 [23]) was “Active” and the IC50 (MCF7 [24]) was 0.0235 µM.

Work on `Cc1cn([C@H]2C[C@H](n3cc(CNC(=O)CCCCCOc4ccc5c(c4)-c4nc6ccccc6nc4[C@@H]4C(C)(C)CCC[C@]54C)nn3)[C@@H](CO)O2)c(=O)[nH]c1=O` yielded an IC50 (Bel-7402 [9]) of 0.251 µM.

Work on `C=CC1=C(C)c2cc3[nH]c(cc4nc(cc5[nH]c(cc1n2)c(C)c5CCC(=O)O)C(CCC(=O)O)=C4C)c(C)c3C=C` [PROTOPORPHYRIN] yielded an IC50 (Bel-7402 [9]) of 0.31 µM.

For `Cc1cn([C@H]2C[C@H](n3cc(CNC(=O)CCCCCOc4ccc5c(c4)-c4nc6cc7ccccc7cc6nc4[C@@H]4C(C)(C)CCC[C@]54C)nn3)[C@@H](CO)O2)c(=O)[nH]c1=O`, the Activity (H22 [2]) was “Non-Toxic”, the IC50 (A-375 [5]) was 0.044 µM and the IC50 (Bel-7402 [9]) was 0.0443 µM. The Activity (A-375 [11]) was “Non-Toxic”, the Activity (Bel-7402 [12]) was “Non-Toxic” and the Activity (MCF7 [18]) was “Non-Toxic”. The IC50 (H22 [20]) was 0.032 µM and the IC50 (MCF7 [24]) was 0.0496 µM.

In the case of `O=C1c2c(O)ccc(O)c2C(=O)c2c(NCCNCCO)ccc(NCCNCCO)c21` [MITOXANTRONE], the Activity (H22 [25]) is reported as “inactive”, the inhibition (H22 [26]) is reported as “Active” and the IC50 (A-375 [27]) is reported as 0.112 µM. The Activity (H22 [28]) was “Active”, the IC50 (MCF7 [29]) was 0.38 µM and the Activity (H22 [30]) was 9 nM. The IC50 at 5 h [31] was 0.187 µM, the IC50 (Bel-7402 [32]) was 0.117 µM and the IC90 (Bel-7402 [32]) was 1.3 µM. The inhibition (H22 [33]) was “inactive”, the Activity (H22 [34]) was “inactive” and the Activity (H22 [35]) was “Active”. For the same compound, the Activity (H22 [36]) was “Active”.
